The nature of data set [1]: MTT cytotoxicity assay, whole cell line panel. The conditions noted are these: human; summary of Table 1 over all five cell lines; read-out: IC50 values of the cytotoxic effect, range over the cell lines. Format: cell-based. (In general: Formazan colour is commonly taken as a measure of viable cells.)
Experimental: The cytotoxic effects of the synthesized compounds were tested on the cell lines A549, MCF-7, SW-480, SH-SY5Y, and HEK-293.
Another data set concerns SW-480. The experiment in a line: MTT cytotoxicity assay. The data set is classed as cell-based. Conditions: SW480, Human colorectal cancer cells, 24 h, read-out: IC50 of Cytotoxic Effect, SW-480. The protocol: (§1) Human lung adenocarcinoma A549 cells, breast carcinoma MCF-7 cells, colon adenocarcinoma SW480 cells, neuroblastoma SH-SY5Y cells, and normal human embryonic kidney HEK-293 cells were obtained from the collection of the Institute of Cytology of the Russian Academy of Sciences (Saint Petersburg, Russia). Cultivation was performed in complete DMEM supplemented with glutamax, containing 10% fetal bovine serum and 1% penicillin-streptomycin. Cell cultures were incubated at 37 °C in a humidified atmosphere with 5% CO2.
(§2) The MTT assay was used to determine the cytotoxic profile of the synthesized compounds [128]. This method is based on the reduction of the tetrazolium salt (3-(4,5-dimethylthiazol-2-yl)-2,5-diphenyl tetrazolium bromide) by mitochondrial dehydrogenases of living cells to water-insoluble formazan crystals.
(§3) Cells in the exponential growth phase were seeded in 96-well culture plates. After 24 h, the test compounds were added to each well at various concentrations (from 0.01 to 100 µM) in triplicate. Control wells contained 1% DMSO solution.
(§4) Following a 24-h incubation with the compounds, 5 mg/mL MTT solution was added to each well, and the cells were incubated at 37 °C for 2 h. Then, the MTT solution was carefully removed, and 200 µL DMSO was added to dissolve the formed formazan crystals. Optical density was measured at a wavelength of 540 nm.
(§5) The efficacy indicators of the cytotoxic effect were IC50 values, representing compound concentrations causing 50% cell death in the sample.

For another data set, the system named is MCF-7. The experiment in a line: MTT cytotoxicity assay. The data set is classed as cell-based. Conditions: MCF7, Human breast adenocarcinoma cells, 24 h, read-out: IC50 of Cytotoxic Effect, MCF-7. As for the experimental part: as §1, §2, §3, §4, §5
A short description of another data set: MTT cytotoxicity assay. The data set is classed as cell-based. Conditions: HEK-293 cells (normal embryonic kidney), Human embryonic kidney (normal origin), read-out: IC50 of Cytotoxic Effect, Hek-293. The protocol: as §1, §2, §3, §4, §5
The subject of a further data set is SH-SY5Y. The experiment in a line: MTT cytotoxicity assay. Conditions: Human neuroblastoma, 24 h, read-out: IC50 of Cytotoxic Effect, SH-SY5Y. The data set is classed as cell-based. As for the experimental part: as §1, §2, §3, §4, §5
The next data set concerns A549. The data set can be described thus: MTT cytotoxicity assay. Format: cell-based. The conditions noted are these: Human non-small cell lung cancer, 24 h, read-out: IC50 of Cytotoxic Effect, A549. As for the experimental part: as §1, §2, §3, §4, §5
The next data set concerns phosphofructokinase I. The data set can be described thus: Glycolytic enzyme activity in treated cells (colorimetric kit). Format: cell-based, human. Conditions: MCF-7 cells, 24-h incubation, 1/2 IC50.
A further data set deals with T1, pyruvate kinase M2 (Homo sapiens, UniProt P14618).
T1 construct: activity of rate-limiting glycolytic enzymes—hexokinase II, phosphofructokinase I, and pyruvate kinase M2—in MCF-7 cells; endogenous in cells
The description is as above. The conditions noted are these: MCF-7 cells, 24-h incubation, 1/2 IC50. Format: cell-based.

The test system of the next data set is hexokinase II. The description is as above. The conditions noted are these: MCF-7 cells, 24-h incubation, 1/2 IC50. The data set is classed as cell-based, human.

T1 sequence (P14618 whole entry): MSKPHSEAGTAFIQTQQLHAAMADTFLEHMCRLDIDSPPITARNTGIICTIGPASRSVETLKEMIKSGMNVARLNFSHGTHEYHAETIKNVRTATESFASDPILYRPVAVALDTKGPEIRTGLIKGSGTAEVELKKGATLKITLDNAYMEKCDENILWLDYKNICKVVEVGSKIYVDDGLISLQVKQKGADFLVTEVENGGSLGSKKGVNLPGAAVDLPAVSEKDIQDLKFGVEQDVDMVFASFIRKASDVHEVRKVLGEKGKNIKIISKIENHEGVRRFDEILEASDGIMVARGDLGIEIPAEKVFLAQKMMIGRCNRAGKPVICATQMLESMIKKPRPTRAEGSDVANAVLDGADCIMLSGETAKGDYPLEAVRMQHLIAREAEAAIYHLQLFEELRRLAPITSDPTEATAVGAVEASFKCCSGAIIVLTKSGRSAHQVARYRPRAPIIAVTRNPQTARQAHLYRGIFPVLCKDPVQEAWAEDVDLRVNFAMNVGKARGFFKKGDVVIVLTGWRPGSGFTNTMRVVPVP

Take `CO[C@@]12[C@H](COC(N)=O)C3=C(C(=O)C(C)=C(N)C3=O)N1C[C@@H]1N[C@@H]12` [Mytomycin C, Mitomycin C, reference compound]: the IC50 at 24 h is 8 to 20 µM in [1] and 6.59 ± 1.46 µM in the data set “MTT cytotoxicity assay”. Further, the IC50 with SW-480 was found to be 11.3 ± 0.46 µM; with MCF-7, 20.4 ± 1.74 µM; in the data set with SH-SY5Y, 7.04 ± 0.02 µM; in the data set with A549, 18.1 ± 1.8 µM.
For `O=C1C(Cl)=C(Cl)C(=O)c2c1nc1n2CCCC1` [Compound 6d, 7,8-dichloro-1,2,3,4-tetrahydropyrido[1,2-a]benzimidazole-6,9-dione], the “Inhibition of enzyme activity, % of control: PFK1” value (shortened to “Inhibition … % of control: PFK1”) in the data set with phosphofructokinase I was 8.30 % of control. At pyruvate kinase M2, the “Inhibition of enzyme activity, % of control: PKM2” value (“Inhibition … % of control: PKM2” below) is 9.48 % of control. The IC50 is 8.68 ± 0.2 µM in the data set on SW-480, 8.52 ± 0.23 µM in the data set on MCF-7, 8.52 ± 0.49 µM in the data set on SH-SY5Y and 7.76 ± 0.17 µM with A549. Further, the IC50 at 24 h in “MTT cytotoxicity assay” was found to be 15.1 ± 0.38 µM.
`O=C1C(Cl)=C(Br)C(=O)c2c1nc1n2CCOC1` [Compound 6f, 7-bromo-8-chloro-3,4-dihydro-1H-[1,4]oxazino[4,3-a]benzimidazole-6,9-dione]: the “Inhibition … % of control: PFK1” value in the data set with phosphofructokinase I was 7.57 % of control. At pyruvate kinase M2, the “Inhibition … % of control: PKM2” value is listed as 12.09 % of control. The “Inhibition of enzyme activity, % of control: HK2” value (from here on “Inhibition … % of control: HK2”) in the data set with hexokinase II was 30.83 % of control. Besides, the IC50 is 8.44 ± 0.07 µM in the data set on SW-480, 8.9 ± 0.19 µM in the data set on MCF-7, 10.8 ± 0.93 µM in the data set on SH-SY5Y and 11.3 ± 2.49 µM in the data set with A549. Further, in the data set “MTT cytotoxicity assay”, the IC50 at 24 h came out at 25.38 ± 0.02 µM.
Consider `CC1CCn2c(nc3c2C(=O)C(Br)=C(Cl)C3=O)C1` (stereo not shown) [Compound 6e, 8-bromo-7-chloro-3-methyl-1,2,3,4-tetrahydropyrido[1,2-a]benzimidazole-6,9-dione], for which the “Inhibition … % of control: PFK1” value with phosphofructokinase I is reported as 7.40 % of control. Also, the “Inhibition … % of control: PKM2” value at pyruvate kinase M2 is reported as 8.36 % of control. The “Inhibition … % of control: HK2” value with hexokinase II is on record as 36.22 % of control. Further, the IC50 with SW-480 came to 9.53 ± 0.51 µM; in the data set on MCF-7 it was 8.97 ± 0.05 µM; in the data set on SH-SY5Y, 9.28 ± 0.15 µM; in the data set with A549, 8.23 ± 0.39 µM. The IC50 at 24 h in the data set “MTT cytotoxicity assay” worked out at 20.2 ± 0.3 µM.
In the case of `O=C1C(Br)=C(Cl)C(=O)c2c1nc1n2CCCC1` [Compound 6b, 7-bromo-8-chloro-1,2,3,4-tetrahydropyrido[1,2-a]benzimidazole-6,9-dione], the “Inhibition … % of control: PFK1” value with phosphofructokinase I is 7.49 % of control. Moreover, the “Inhibition … % of control: PKM2” value at pyruvate kinase M2 was 14.85 % of control. For the same compound, the “Inhibition … % of control: HK2” value in the data set on hexokinase II is recorded as 34.25 % of control. Moreover, the IC50 was found to be 10.5 ± 0.68 µM in the data set on SW-480, 7.79 ± 0.03 µM in the data set on MCF-7, 8.6 ± 0.06 µM with SH-SY5Y and 8.86 ± 3.19 µM with A549. Further, the IC50 at 24 h in the data set “MTT cytotoxicity assay” came out at 16.52 ± 0.15 µM.
Take `O=C1C(Br)=C(Br)C(=O)c2c1nc1n2CCCC1` [Compound 6a, 7,8-dibromo-1,2,3,4-tetrahydropyrido[1,2-a]benzimidazole-6,9-dione]: the “Inhibition … % of control: PFK1” value with phosphofructokinase I is 9.75 % of control. Also, on pyruvate kinase M2, the “Inhibition … % of control: PKM2” value was 11.39 % of control. The IC50 was 9.11 ± 0.13 µM in the data set on SW-480, 8.81 ± 1.65 µM in the data set with MCF-7, 9.66 ± 0.57 µM with SH-SY5Y and 9.53 ± 0.59 µM in the data set on A549. In addition, in the data set “MTT cytotoxicity assay”, the IC50 at 24 h was 24.8 ± 0.42 µM.
For the compound `O=C1C(Cl)=C(Br)C(=O)c2c1nc1n2CCCC1` [Compound 6c, 8-bromo-7-chloro-1,2,3,4-tetrahydropyrido[1,2-a]benzimidazole-6,9-dione], in the data set on phosphofructokinase I, the “Inhibition … % of control: PFK1” value is recorded as 9.05 % of control. Moreover, the “Inhibition … % of control: PKM2” value on pyruvate kinase M2 was 13.57 % of control. Further, the “Inhibition … % of control: HK2” value in the data set with hexokinase II is reported as 36.01 % of control. The concentration for half-maximal inhibition (IC50) in the data set on SW-480 amounted to 10.22 ± 0.04 µM; in the data set on MCF-7, 8.35 ± 0.32 µM; with SH-SY5Y, 9.49 ± 0.8 µM; in the data set on A549 it was 7.81 ± 0.64 µM. The IC50 at 24 h in “MTT cytotoxicity assay” was determined as 16 ± 0.18 µM.

A word on the IC50: it is the concentration that gives 50% inhibition.

For the origin of these results see paper PMC12610816, “New Dihalogenated Derivatives of Condensed Benzimidazole Diones Promotes Cancer Cell Death Through Regulating STAT3/HK2 Axis/Pathway” (Molecules, 2025).
